US10213407B2, “Compounds and methods for inhibiting production of trimethylamine” (The Procter & Gamble Company, priority 2015, dated 2019)

system: Proteus mirabilis 29906 (Pm) lysate; assay: Inhibition of formation of TMA from choline in Proteus mirabilis lysate (d9-choline to d9-TMA, LC-MS/MS); type: biochemical; conditions: conversion of choline to TMA; Pm lysate 1.5 mg/mL protein, 50 μM d9-choline chloride, 37° C., two hours; read-out: TMA Inhibition (IC50, mol/L)
Experimental: EXAMPLE 2 Assay for identifying and characterizing compounds that inhibit the formation of TMA from choline.
This example provides an exemplary assay for identifying and characterizing compounds that inhibit the formation of TMA from choline.
Proteus mirabilis 29906 (Pm) strain was grown aerobically overnight in 500 ml of Nutrient Broth media (3 g/L beef extract, 5 g/L Peptone; Difco #234000) at 37° C. with 250 rpm shaking. The biomass was pelleted by centrifugation at 6000×g for 12 minutes at 4° C. The cell pellet was suspended in 240 mL of ice-cold 1× Phosphate Buffered Saline (Ca^2+ and Mg^2+ free). Ninety micrograms of Lysozyme (Sigma #L6876 Lot #SLBG8654V; Sigma-Aldrich Corp., St. Louis, Mo.) was added and incubated with 320 rpm shaking for 30 minutes at 4° C. Lysis was achieved via French press with a 4° C. prechilled 1″ diameter chamber at 1000 psi (high ratio; internal PSI equivalent ˜16000). The lysate was centrifuged at 6,000×g for 12 minutes at 4° C. to pellet extra debris. A protein concentration of the centrifuged lysate supernatant was determined by a BCA Protein Assay Kit (Pierce #23225; Thermo Fisher Scientific Co., Waltham, Mass.) and protein concentration adjusted to 3 mg/ml with 1× Dulbecco's phosphate buffered saline (DPBS). The centrifuged supernatant lysate was aliquoted into 20 mL volumes and stored frozen at −80° C.
Proteus mirabilis 29906 (Pm) lysate was diluted to 1.5 mg/mL protein with 1×DPBS. Choline chloride (CC) (1M stock) was added to reach a final concentration of 2.5 mM choline chloride. The mixture was mixed using a vortex mixer for approximately 15 seconds and incubated at 37° C. for 22 hours. After incubation, 150 μL of CC-treated Pm lysate was dispensed into a deep-well plate (polypropylene, 2 mL volume, Corning Axygen catalogue #P-DW-20-C). Candidate IC50 compounds from TABLE 1 and vehicle control (respective vehicle control of DMSO or water), or control compounds (IC50 control, 8-Quinolinol hemisulfate salt (Sigma Catalog #55100)) were added at a 1:100 dilution (e.g., 1.5 μL per well). The plates were agitated on a plate shaker for 1 minute. d9-choline chloride (1.5 μL of 5 mM) was added to all wells to reach a final d9-choline chloride concentration of 50 μM.
The plates were again agitated on a plate shaker for 1 minute and incubated at 37° C. for two hours. After incubation, 1.5 μL of formic acid was added to each well (final concentration=1% formic acid). The plates were agitated on a plate shaker for 1 minute and placed on ice. Cell lysate samples were spiked with stable isotope labeled internal standard (22.5 μL of 6 μg/mL of 13C3-trimethylamine (13C3-TMA) was added to each sample), then d9-trimethylamine (d9-TMA), trimethylamine (TMA) and 13C3-TMA were isolated from the lysate after protein precipitation as described below. Acetonitrile acidified with 0.1% formic acid, 600 μL, was added to each sample which was then centrifuged (2,100 g for 20 minutes) to pellet the protein and other precipitates. The supernatant was removed and analyzed as described below. The TMA, d9-TMA and 13C3-TMA in the isolated supernatant samples were subjected to gradient High Performance Liquid Chromatography (HPLC) analysis on a Waters Atlantis HILIC Silica column, from Waters Corp., Milford, Mass., (2.1×50 mm, 3 μm particles) with an Atlantis Silica HILIC Sentry guard column, from Waters Corp., Milford, Mass., (100 Å, 3 μm, 2.1 mm×10 mm), 10 mM ammonium formate in water with 0.1% formic acid as mobile phase A and 0.1% formic acid in acetonitrile as mobile phase B. Detection and quantitation was achieved by tandem mass spectrometry operating under multiple reaction monitoring (MRM) MS/MS conditions (m/z 60.1→44.1 for TMA, m/z 69.1→49.1 for d9-TMA, m/z 63.0→46.1 for 13C3-TMA). TMA and d9-TMA calibration standards (STD), prepared in 80/20/0.1% acetonitrile/Water/Formic Acid, were used to construct a regression curve by plotting the response (peak area TMA/peak area 13C3-TMA) versus concentration for each standard. […]

First: C[N+](C)(CCCl)CCN=C=S [Compound 23, N-(2-Chloroethyl)-2-isothiocyanato-N,N-dimethylethan-1-aminium triflate]
Second: C[N+](C)(CCCCl)CCN=C=S [Compound 24, N-(3-Chloropropyl)-2-isothiocyanato-N,N-dimethylethan-1-aminium triflate]
The IC50 of the first is 2.5-fold lower: 25.1 µM for the first, 63.1 µM for the second. The first is the more potent here.

Going from `CC[N+](CC)(CCCl)CCCN=C=S` [Compound 25, N-(2-Chloroethyl)-3-isothiocyanato-N,N-diethylpropan-1-aminium triflate] to `CC[N+](CC)(CCCCl)CCCN=C=S` [Compound 26, N-(3-Chloropropyl)-3-isothiocyanato-N,N-diethylpropan-1-aminium triflate], the IC50 rises from 19.9 µM to 50.1 µM (2.5-fold). The first is the more potent here.

Compared with `S=C=NCC[n+]1ccccc1` [Compound 28, 1-(2-Isothiocyanatoethyl)pyridin-1-ium bromide], `Oc1ccc[n+](CCN=C=S)c1` [Compound 29, 1-(2-Isothiocyanatoethyl)-3-hydroxypyridinium bromide] is 40-fold higher in IC50: 31.6 µM for the first, 1260 µM for the second.

Compared with `C#CC[N+](C)(C)CCN=C=S` [Compound 37, N-(2-isothiocyanatoethyl)-N,N-dimethylprop-2-yn-1-aminium bromide], `C[N+](C)(CCBr)CCN=C=S` [Compound 14, N-(2-Bromoethyl)-2-isothiocyanato-N,N-dimethylethan-1-aminium triflate] is 13-fold higher in IC50: 1.99 µM for the first, 24.9 µM for the second. The first is the more potent here.

Compared with `C[N+]1(CCN=C=S)CCOCC1` [Compound 40, 4-Methyl-4-(2-isothiocyanatoethyl)morpholinium trifluoromethanesulfonate], `C[N+]1(CCCN=C=S)CCOCC1` [Compound 43, 4-Methyl-4-(3-isothiocyanatopropyl)morpholinium trifluoromethanesulfonate] is higher in IC50: 286 µM for the first, over 1000 µM for the second.

First: Oc1ccc[n+](CCCN=C=S)c1 [Compound 32, 3-hydroxy-1-(3-isothiocyanatopropyl)pyridin-1-ium trifluoromethanesulfonate]
Second: OCc1cccc[n+]1CCCN=C=S [Compound 31, 2-(hydroxymethyl)-1-(3-isothiocyanatopropyl)pyridin-1-ium trifluoromethanesulfonate]
The IC50 of the first is 7.9-fold higher: 1990 µM for the first, 251 µM for the second.

First: C[N+](C)(CCN=C=S)CCOCc1ccccc1 [Compound 11, N-(2-Benzyloxyethyl)-2-isothiocyanato-N,N-dimethylethan-1-aminium triflate]
Second: C[N+](C)(CCN=C=S)CCOc1ccccc1 [Compound 13, N-(2-Phenoxyethyl)-2-isothiocyanato-N,N-dimethylethan-1-aminium triflate]
The IC50 of the first is 12-fold higher: 16.1 µM for the first, 1.33 µM for the second. The second is the more potent here.

`C[N+]1(CCN=C=S)CCC(O)CC1` (stereo not drawn) [Compound 39, 4-hydroxy-1-(2-isothiocyanatoethyl)-1-methylpiperidin-1-ium bromide] and `C[N+]1(CCN=C=S)CCCCC1` [Compound 41, 1-Methyl-1-(2-isothiocyanatoethyl)piperidium trifluoromethanesulfonate] are within 1.5-fold of each other in IC50: 25.9 µM for the first, 31.7 µM for the second.

First: C=C(C[N+](C)(C)CCN=C=S)C(=O)OC [Compound 38, N-(2-isothiocyanatoethyl)-2-(methoxycarbonyl)-N,N-dimethylprop-2-en-1-aminium bromide]
Second: COCC[N+](C)(C)CCN=C=S [Compound 17, N-(2-Methoxyethyl)-2-isothiocyanato-N,N-dimethylethan-1-aminium triflate]
The IC50 of the first is 2.2-fold lower: 14.1 µM for the first, 31.6 µM for the second. The first is the more potent here.

Compared with `OCC[N+]1(CCN=C=S)CCCCC1` [Compound 33, 1-(2-hydroxyethyl)-1-(2-isothiocyanatoethyl)piperidin-1-ium trifluoromethanesulfonate], `OCC[N+]1(CCCN=C=S)CCCCC1` [Compound 35, 1-(2-hydroxyethyl)-1-(3-isothiocyanatopropyl)piperidin-1-ium trifluoromethanesulfonate] is 6.3-fold higher in IC50: 200 µM for the first, 1260 µM for the second.

Compared with `S=C=NCCC[N+]12CCC(CC1)CC2` [Compound 45, 1-(3-Isothiocyanatopropyl)quinuclidinium trifluoromethanesulfonate], `S=C=NCC[N+]12CCC(CC1)CC2` [Compound 42, 1-(2-Isothiocyanatoethyl)quinuclidinium trifluoromethanesulfonate] is 9.5-fold lower in IC50: 115 µM for the first, 12.1 µM for the second. The second is the more potent here.

Compared with `C[N+]1(CCN=C=S)CCCCC1CO` (stereo not drawn) [Compound 34, 2-(hydroxymethyl)-1-(2-isothiocyanatoethyl)-1-methylpiperidin-1-ium trifluoromethanesulfonate], `C[N+]1(CCCN=C=S)CCCCC1` [Compound 44, 1-Methyl-1-(3-isothiocyanatopropyl)piperidinium trifluoromethanesulfonate] is higher in IC50: 316 µM for the first, over 1000 µM for the second. The first is the more potent here.

`CC[N+](CC)(CCCN=C=S)CCOC` [Compound 18, N-(2-Methoxyethyl)-3-isothiocyanato-N,N-diethylpropan-1-aminium triflate] and `CC[N+](CC)(CCCN=C=S)CCCOC` [Compound 22] are within 1.5-fold of each other in IC50: 39.8 µM for the first, 31.6 µM for the second.

First: COCCC[N+](C)(C)CCN=C=S [Compound 21, N-(3-Methoxypropyl)-2-isothiocyanato-N,N-dimethylethan-1-aminium triflate]
Second: CCOCC[N+](C)(C)CCN=C=S [Compound 19, N-(2-Ethoxyethyl)-2-isothiocyanato-N,N-dimethylethan-1-aminium triflate]
The IC50 of the first is 2-fold lower: 31.6 µM for the first, 63.1 µM for the second.

Going from `CC[N+](CC)(CCF)CCCN=C=S` [Compound 27, N-(2-Fluoroethyl)-3-isothiocyanato-N,N-diethylpropan-1-aminium triflate] to `CCOCC[N+](CC)(CC)CCCN=C=S` [Compound 20, N-(2-Ethoxyethyl)-3-isothiocyanato-N,N-diethylpropan-1-aminium triflate], the IC50 falls from 31.6 µM to 19.9 µM (1.6-fold).

Compared with `C[N+](C)(CCO)CCCN=C=S` [Compound 36, N-(2-hydroxyethyl)-3-isothiocyanato-N,N-dimethylpropan-1-aminium trifluoromethanesulfonate], `C[N+](C)(CCN=C=S)CC1CO1` (stereo not drawn) [Compound 15, N-(Oxiranylmethyl)-2-isothiocyanato-N,N-dimethylethan-1-aminium triflate] is 1.9-fold higher in IC50: 100 µM for the first, 194 µM for the second. The first is the more potent here.

`CC[N+](CC)(CCCN=C=S)CC1CO1` (stereo not drawn) [Compound 16, N-(Oxiranylmethyl)-3-isothiocyanato-N,N-diethylpropan-1-aminium triflate] and `CC[N+](CC)(CCCN=C=S)CCOc1ccccc1` [Compound 10, N-(2-Phenoxyethyl)-3-isothiocyanato-N,N-diethylpropan-1-aminium triflate] are within 1.5-fold of each other in IC50: 39.8 µM for the first, 29.6 µM for the second.

`CC[N+](CC)(CCCN=C=S)CCOCc1ccccc1` [Compound 12, N-(2-Benzyloxyethyl)-3-isothiocyanato-N,N-diethylpropan-1-aminium triflate] and `OCc1cccc[n+]1CCN=C=S` [Compound 30, 1-(2-Isothiocyanatoethyl)-(2-hydroxymethyl)pyridinium triflate] are within 1.5-fold of each other in IC50: 29.1 µM for the first, 25.1 µM for the second.
